Measured values reported in patent US10351915B2 (Berg LLC, priority 2009, dated 2019).

Legend:
various cell types = assay: Minimal CoQ10 concentration and treatment time for induction of early apoptosis (Bcl-2, caspase, annexin V); format: cell-based
Experimental: CoQ10 treatment of cells was carried out as described in detail below in the Materials and Methods. Induction of apoptosis was assessed in the treated cells by monitoring indicators of early apoptosis (e.g., Bcl-2 expression, caspase activation and by using annexin V assays) as described below. From these studies, the minimal CoQ10 dosage, e.g., concentration of CoQ10 and time of treatment, required to induce apoptosis in the panel of cell lines was determined.
Cells were cultured in T-75 flasks with relevant medium supplemented with 10% Fetal Bovine Serum (FBS), 1% PSA (penicillin, streptomycin, amphotericin B) (Invitrogen and Cellgro) in a 37° C. incubator with 5% CO2 levels until 70-80% confluence was reached. To harvest cells for treatment, flasks were primed with 1 mL Trypsin, aspirated, trypsinized with an additional 3 mL, and incubated at 37° C. for […]. Cells were then neutralized with an equal volμme of media and the subsequent solution was centrifuged at […] for 8 minutes. The supernatant was aspirated and the cells were resuspended with 8.5 ml of media. A mixture of 500 ul of the resuspension and 9.5 ml of […] was read twice by a coulter counter and the appropriate number of cells to be seeded into each dish was determined. Control and concentration ranging from 0-200 μM groups were examined in triplicate. From a 500 μM CoQ-10 stock solution, serial dilutions were performed to achieve desired experimental concentration in appropriate dishes. Dishes were incubated in a 37° C. incubator with 5% CO2 levels for 0-72 hours depending on cell type and experimental protocol.
The volume of sample to load per well was determined using the raw mean concentration of protein obtained from the BCA protein assay. Approximately 30-60 μg of protein were loaded for each treatment time point. Proteins were run in triplicate on 12% Tris-HCl ready gels (Bio-Rad) or hand cast gels in 1× running buffer at 85 and 100 volts. Proteins were then transferred onto nitrocellulose paper for an hour at 100 volts, and blocked for another hour in a 5% milk solution. Membranes were placed in primary antibody (1 uL Ab:1000 uL TBST) (Cell Signaling) overnight at […] The following day, membranes were washed three times for ten minutes each with Tris-Buffered Saline Tween-20 (TBST), and secondary antibody (anti-rabbit; 1 uL Ab: 1000 uL TBST) was applied for an hour at […] Membranes were washed again three times for ten minutes with TBST and chemoluminescence using Pico or Femto substrate was completed (Pierce). Membranes were then developed at time intervals that produced the best visual results. After developing, membranes were kept in TBST at […] until Actin levels could be measured.
Cells were washed twice in PBS10X and resuspended in Binding Buffer (0.1 M HEPES, pH 7.4; 1.4 M NaCl; 25 mM CaCl2). Samples of 100 μl were added to a culture tube with 5 μl of annexin-PE dye or […]. The cells were mixed and incubated without light at room temperature for 15 minutes. After which, 400 μl of 1× Binding Buffer was added to each sample and they were subjected to analysis by flow cytometry.

HDFa cells = assay: Oxygen consumption rate (OCR), SeaHorse XF analyzer; format: cell-based, human; settings: normal cells (HDFa)
Description: (SeaHorse Biosciences Inc, North Billerica, Mass.).
In this experiment, the OCR and extracellular acidification rate (ECAR) in normal cells lines were obtained in the presence and absence of CoQ10 to determine baseline values. It was observed that in its native nutrient environment, the basal OCR rates in normal cells lines are different, and are usually a function of the physiological roles of the cells in the body.
FIGS. 37 and 38 below describes the OCR in HDFa and HASMC cells grown in physiologically normal glucose (about 4.6 mM) and high glucose (hyperglycemic) conditions.

[1] = LC-MS/MS quantification of Q10, Q10H2 and Q9 in mitochondrial enriched samples; format: cell-based
Experimental: Ten μl of each sample was injected.

SCC cells [2] = assay: Real-time PCR Diabetes Array; format: cell-based
Description: (§1) The control cells were untreated cells.

SCC cells [3] = assay: Real-time PCR Apoptosis Array; format: cell-based
Description: as §1
RNA was quantified by measuring Optical Density at 260 nm.

SMILES: COC1=C(OC)C(=O)C(C/C=C(\C)CC/C=C(\C)CC/C=C(\C)CC/C=C(\C)CC/C=C(\C)CC/C=C(\C)CC/C=C(\C)CC/C=C(\C)CC/C=C(\C)CCC=C(C)C)=C(C)C1=O [Q10, Coenzyme Q10]
- Indication of Early apoptosis (Bcl-2, annexin V, or caspase activation) (various cell types; BONE: Ewing's sarcoma (NCI)): Extremely
- Minimal treatment Time for induction of early apoptosis (various cell types; BONE: Ewing's sarcoma (NCI)): 1 h
- Indication of Early apoptosis (Bcl-2, annexin V, or caspase activation) (various cell types; BONE: Osteosarcoma (143b)): Very Strong
- Minimal treatment Time for induction of early apoptosis (various cell types; BONE: Osteosarcoma (143b)): 48 h
- Indication of Early apoptosis (Bcl-2, annexin V, or caspase activation) (various cell types; BREAST: BT-20): Strong
- Minimal treatment Time for induction of early apoptosis (various cell types; BREAST: BT-20): 48 h
- Indication of Early apoptosis (Bcl-2, annexin V, or caspase activation) (various cell types; BREAST: MCF-7): Strong
- Minimal treatment Time for induction of early apoptosis (various cell types; BREAST: MCF-7): 48 h
- Indication of Early apoptosis (Bcl-2, annexin V, or caspase activation) (various cell types; BREAST: MDA MB 468): Strong
- Minimal treatment Time for induction of early apoptosis (various cell types; BREAST: MDA MB 468): 48 h
- Indication of Early apoptosis (Bcl-2, annexin V, or caspase activation) (various cell types; BREAST: SkBr-3): Very Strong
- Minimal treatment Time for induction of early apoptosis (various cell types; BREAST: SkBr-3): 24 h
- Indication of Early apoptosis (Bcl-2, annexin V, or caspase activation) (various cell types; BREAST: ZR-75): Slight
- Minimal treatment Time for induction of early apoptosis (various cell types; BREAST: ZR-75): 72 h
- Indication of Early apoptosis (Bcl-2, annexin V, or caspase activation) (various cell types; Heart: Aortic smooth muscle (HASMC)): None
- Indication of Early apoptosis (Bcl-2, annexin V, or caspase activation) (various cell types; LIVER: Hep3B): Very Strong
- Minimal treatment Time for induction of early apoptosis (various cell types; LIVER: Hep3B): 24 h
- Indication of Early apoptosis (Bcl-2, annexin V, or caspase activation) (various cell types; LIVER: HepG2): Very Strong
- Minimal treatment Time for induction of early apoptosis (various cell types; LIVER: HepG2): 24 h
- Indication of Early apoptosis (Bcl-2, annexin V, or caspase activation) (various cell types; Mammary fiboblasts: 184A1 and 184B5): None
- Indication of Early apoptosis (Bcl-2, annexin V, or caspase activation) (various cell types; Melanoma (Skmel 2)): Very Strong
- Minimal treatment Time for induction of early apoptosis (various cell types; Melanoma (Skmel 2)): 24 h
- Indication of Early apoptosis (Bcl-2, annexin V, or caspase activation) (various cell types; Melanoma (Skmel 28)): Strong
- Minimal treatment Time for induction of early apoptosis (various cell types; Melanoma (Skmel 28)): 24 h
- Indication of Early apoptosis (Bcl-2, annexin V, or caspase activation) (various cell types; PANCREAS: PaCa2): Very Strong
- Minimal treatment Time for induction of early apoptosis (various cell types; PANCREAS: PaCa2): 24 h
- Indication of Early apoptosis (Bcl-2, annexin V, or caspase activation) (various cell types; PROSTATE: PC3): Very Strong
- Minimal treatment Time for induction of early apoptosis (various cell types; PROSTATE: PC3): 24 h
- Indication of Early apoptosis (Bcl-2, annexin V, or caspase activation) (various cell types; SCC, Squamous cell carcinoma): Very Strong
- Minimal treatment Time for induction of early apoptosis (various cell types; SCC, Squamous cell carcinoma): 24 h
- Indication of Early apoptosis (Bcl-2, annexin V, or caspase activation) (various cell types; SKIN: Fibroblasts (nFib)): None
- Indication of Early apoptosis (Bcl-2, annexin V, or caspase activation) (various cell types; SKIN: Keratinocytes (Heka, Hekn)): None
- Indication of Early apoptosis (Bcl-2, annexin V, or caspase activation) (various cell types; SKIN: Melanocytes (Hema, LP)): None
- effect on normal cells (various cell types; normal cells, including keratinocytes and dermal fibroblasts): increased proliferation and migration
- efficacy of Coenzyme Q10 treatment (induction of apoptosis) (various cell types; oncogenic cell lines): greater in cell types that exhibited increased oncogenicity and/or greater metastatic potential
- OCR (HDFa cells): influenced OCR
- increase in Q10 levels in mitochondria ([1]; 100 μM Q10, 19 hours): ~3 fold
- increase in Q10 levels in mitochondria ([1]; 100 μM Q10, 48 hour time point): ~6 fold
- form of Q10 in mitochondria ([1]; exogenous Q10 added to the media): maintained in the supplied oxidized form
- Regulation (mRNA) (SCC cells [2]; 100 μM Q10, at 6 and 24 hours): Down regulated at 6 and 24
- Regulation (mRNA) (SCC cells [2]; 100 μM Q10, at 6 hours): Down regulated at 6 hours.
- Regulation (mRNA) (SCC cells [3]; 100 μM Q10, at 6 hours): Down regulated at 6 hours
- Regulation (mRNA) (SCC cells [3]; 100 μM Q10, at 24 hours, BAX mRNA): Up regulated at 24 hours.
- Regulation (mRNA) (SCC cells [3]; 100 μM Q10, at 24 hours, BNIP3 mRNA): Down regulated at 24 hours.
